Consider 18 compounds from PubChem BioAssay AID296 (DTP/NCI, 2004).

In this assay the test system is MX-1 breast xenograft, nude mice, tumor weight T/C. Nature of the assay: NCI In Vivo Anticancer Drug Screen. Data for tumor model Human Mammary Carcinoma MX-1 Xenograft (intrarenal inoculation) in NU/NU Swiss (nude) mice. The note with it: endpoint: mean tumor weight change, higher = larger tumour. The essentials:
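Mice carrying the implanted tumor receive either test agent or vehicle. Tumor size or survival is then recorded for both groups. Results are stated as the treated-to-control quotient.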
A general note: Xenograft models place foreign cells or tissue in a host animal.

[1] abbreviates: dose: 75.0 mg/kg/injection, schedule: Q04DX003 (sc), vehicle: Klucel (hydroxypropylcellulose) (HPC).

Where “and” joins values, the source holds several entries; their conditions need not be identical. Identical values can stand only once. Inconclusive results are not listed.

Turning to `O=P1(N(CCCl)CCCl)NCCCO1` (stereo not given), the T/C is, setting by setting: (dose: 6.25 mg/kg/injection, schedule: Q01DX010 (ip), vehicle: saline) 82 % of control; (dose: 6.25 mg/kg/injection, schedule: Q01DX010 (sc), vehicle: saline) 56 % of control; (dose: 12.5 mg/kg/injection, schedule: Q01DX010 (ip), vehicle: saline) -29 % of control; (dose: 20.8 mg/kg/injection, schedule: Q04DX003 (ip), vehicle: saline) 8 % of control; (dose: 25.0 mg/kg/injection, schedule: Q01DX010 (ip), vehicle: saline) -83 % of control; (dose: 25.0 mg/kg/injection, schedule: Q01DX010 (sc), vehicle: saline) -65 % of control and -47 % of control. For the same compound, the T/C (dose: 41.66 mg/kg/injection, schedule: Q04DX003 (ip), vehicle: saline) was -6 % of control; the T/C (dose: 41.66 mg/kg/injection, schedule: Q04DX003 (sc), vehicle: saline) was -53 % of control; the T/C (dose: 50.0 mg/kg/injection, schedule: Q01DX010 (sc), vehicle: saline) was -93 % of control.
As for `O=NN(CCCl)C(=O)NCCO`, the T/C is, setting by setting: (dose: 3.12 mg/kg/injection, schedule: Q04DX003 (sc), vehicle: water) 72 % of control and 208 % of control; (dose: 12.5 mg/kg/injection, schedule: Q04DX003 (sc), vehicle: water) 10 % of control.
As to `O=C([O][Bi]([c]1ccccc1)[c]1ccccc1)c1ccccc1`, the T/C by setting is: (dose: 25.0 mg/kg/injection, schedule: Q04DX003 (ip), vehicle: Klucel (hydroxypropylcellulose) (HPC)) 91 % of control; (dose: 50.0 mg/kg/injection, schedule: Q04DX003 (ip), vehicle: Klucel (hydroxypropylcellulose) (HPC)) 78 % of control; (dose: 100.0 mg/kg/injection, schedule: Q04DX003 (ip), vehicle: Klucel (hydroxypropylcellulose) (HPC)) 64 % of control.
Consider `CC(=O)OCC1OC(n2cc(CBr)nn2)C(OC(C)=O)C(OC(C)=O)C1OC(C)=O` (stereo not given), for which the T/C runs as follows: (dose: 12.5 mg/kg/injection, schedule: Q01DX010 (sc), vehicle: saline with Tween-80) 106 % of control; (dose: 25.0 mg/kg/injection, schedule: Q01DX010 (sc), vehicle: saline with Tween-80) 117 % of control; (dose: 50.0 mg/kg/injection, schedule: Q01DX010 (sc), vehicle: saline with Tween-80) 117 % of control.
Consider `Cc1oc2c(C)c3oc(=O)cc(C)c3cc2c1CCl`, for which the T/C is 109 % of control (dose: 300.0 mg/kg/injection, schedule: Q04DX003 (sc), vehicle: saline with Tween-80); 75 % of control (dose: 600.0 mg/kg/injection, schedule: Q04DX003 (sc), vehicle: saline with Tween-80); 83 % of control (dose: 1200.0 mg/kg/injection, schedule: Q04DX003 (sc), vehicle: saline with Tween-80); 54 % of control (dose: 2400.0 mg/kg/injection, schedule: Q04DX003 (sc), vehicle: saline with Tween-80).
With `COc1cccc2c1C(=O)c1c(O)c3c(c(O)c1C2=O)C[C@@](O)(C(=O)CO)C[C@@H]3OC1CC(N)C(OC)C(C)O1` (stereo not given in full), the T/C (dose: 1.5 mg/kg/injection, schedule: Q01DX010 (sc), vehicle: saline) is 54 % of control.
As for `C=C(C)[C@H]1Cc2c(ccc3c2O[C@@H]2COc4cc(OC)c(OC)cc4[C@@H]2C3=O)O1`, the T/C is, setting by setting: (dose: 4.0 mg/kg/injection, schedule: Q01DX010 (sc), vehicle: saline with Tween-80) 94 % of control; (dose: 8.0 mg/kg/injection, schedule: Q01DX010 (sc), vehicle: saline with Tween-80) 80 % of control.
With `Nc1ccc2nc3ccc(N)cc3[n+](-c3ccccc3)c2c1`, the T/C is 65 % of control (dose: 18.0 mg/kg/injection, schedule: Q04DX003 (sc), vehicle: saline); 119 % of control (dose: 36.0 mg/kg/injection, schedule: Q04DX003 (sc), vehicle: saline); 72 % of control (dose: 72.0 mg/kg/injection, schedule: Q04DX003 (sc), vehicle: saline); 59 % of control (dose: 144.0 mg/kg/injection, schedule: Q04DX003 (sc), vehicle: saline).
For `COc1cc([C@@H]2c3cc4c(c(O)c3C[C@H]3COC(=O)[C@@H]32)OCO4)cc(OC)c1OC`, the T/C (dose: 2.0 mg/kg/injection, schedule: Q01DX010 (sc), vehicle: saline) is 78 % of control and the T/C (dose: 4.0 mg/kg/injection, schedule: Q01DX010 (sc), vehicle: saline) was 56 % of control.
Consider `OCC12COCN1COC2`, for which the T/C reads like this: (dose: 300.0 mg/kg/injection, schedule: Q04DX003 (sc), vehicle: saline) 80 % of control; (dose: 600.0 mg/kg/injection, schedule: Q04DX003 (sc), vehicle: saline) 102 % of control; (dose: 1200.0 mg/kg/injection, schedule: Q04DX003 (sc), vehicle: saline) 109 % of control; (dose: 2400.0 mg/kg/injection, schedule: Q04DX003 (sc), vehicle: saline) 122 % of control.
`N[C@@H](Cc1ccc(N(CCCl)CCCl)cc1)C(=O)O`: the T/C reads like this: (dose: 1.5 mg/kg/injection, schedule: Q04DX003 (sc), vehicle: suspension in saline) 23 % of control and 34 % of control; (dose: 2.0 mg/kg/injection, schedule: Q01DX010 (ip), vehicle: saline) -42 % of control and -36 % of control; (dose: 3.0 mg/kg/injection, schedule: Q04DX003 (sc), vehicle: suspension in saline) 4 % of control and 8 % of control; (dose: 3.33 mg/kg/injection, schedule: Q04DX003 (ip), vehicle: saline) -15 % of control; (dose: 3.33 mg/kg/injection, schedule: Q04DX003 (sc), vehicle: saline) 7 % of control; (dose: 4.0 mg/kg/injection, schedule: Q01DX010 (ip), vehicle: saline) -91 % of control. Also, the T/C by setting is: (dose: 4.0 mg/kg/injection, schedule: Q01DX010 (sc), vehicle: suspension in saline) -100 % of control; (dose: 6.0 mg/kg/injection, schedule: Q04DX003 (sc), vehicle: suspension in saline) -72 % of control and -58 % of control; (dose: 6.65 mg/kg/injection, schedule: Q04DX003 (ip), vehicle: saline) -87 % of control; (dose: 6.65 mg/kg/injection, schedule: Q04DX003 (sc), vehicle: saline) -51 % of control; (dose: 12.0 mg/kg/injection, schedule: Q04DX003 (sc), vehicle: saline) -100 % of control; (dose: 12.0 mg/kg/injection, schedule: Q04DX003 (sc), vehicle: suspension in saline) -100 % of control.
As for `CC(C)NC(=O)N(CCCCBr)N=O`, the T/C under setting [1] was 42 % of control and 47 % of control; the T/C (dose: 300.0 mg/kg/injection, schedule: Q04DX003 (sc), vehicle: Klucel (hydroxypropylcellulose) (HPC)) was 40 % of control.
`N/C=N/O`: the T/C runs as follows: (dose: 100.0 mg/kg/injection, schedule: Q01DX010 (sc), vehicle: saline) 107 % of control; (dose: 200.0 mg/kg/injection, schedule: Q01DX010 (sc), vehicle: saline) 53 % of control; (dose: 400.0 mg/kg/injection, schedule: Q01DX010 (sc), vehicle: saline) 81 % of control.
In the case of `C=C(OP(=O)(OC)OC)Sc1ccccc1C`, the T/C is, setting by setting: (dose: 0.2 mg/kg/injection, schedule: Q04DX003 (sc), vehicle: Klucel (hydroxypropylcellulose) (HPC)) 65 % of control; (dose: 0.4 mg/kg/injection, schedule: Q04DX003 (sc), vehicle: Klucel (hydroxypropylcellulose) (HPC)) 67 % of control.
`CNC(=O)OCc1c(COC(=O)NC)c(-c2ccccc2)n(C)c1-c1ccccc1`: the T/C (dose: 100.0 mg/kg/injection, schedule: Q04DX003 (sc), vehicle: distilled water + Tween-80) was 121 % of control; the T/C (dose: 200.0 mg/kg/injection, schedule: Q04DX003 (sc), vehicle: distilled water + Tween-80) was 51 % of control; the T/C (dose: 400.0 mg/kg/injection, schedule: Q04DX003 (sc), vehicle: distilled water + Tween-80) was 78 % of control; the T/C (dose: 800.0 mg/kg/injection, schedule: Q04DX003 (sc), vehicle: distilled water + Tween-80) is 74 % of control.
With `C1CCC2OCCOCCOC3CCCCC3OCCOCCOC2C1` (stereo not given), the T/C is, setting by setting: (dose: 9.38 mg/kg/injection, schedule: Q04DX003 (sc), vehicle: Klucel (hydroxypropylcellulose) (HPC)) 62 % of control; (dose: 18.75 mg/kg/injection, schedule: Q04DX003 (sc), vehicle: Klucel (hydroxypropylcellulose) (HPC)) 87 % of control; (dose: 37.5 mg/kg/injection, schedule: Q04DX003 (sc), vehicle: Klucel (hydroxypropylcellulose) (HPC)) 64 % of control; under setting [1], 46 % of control.
In the case of `CCNC(=O)[B-][N+](C)(C)C`, the T/C by setting is: (dose: 100.0 mg/kg/injection, schedule: Q04DX003 (sc), vehicle: Klucel (hydroxypropylcellulose) (HPC)) 115 % of control; (dose: 200.0 mg/kg/injection, schedule: Q04DX003 (sc), vehicle: Klucel (hydroxypropylcellulose) (HPC)) 92 % of control; (dose: 400.0 mg/kg/injection, schedule: Q04DX003 (sc), vehicle: Klucel (hydroxypropylcellulose) (HPC)) 74 % of control.
Regarding `COc1ccc(C(N)=O)cc1N=NN(C)C`, the T/C (dose: 50.0 mg/kg/injection, schedule: Q01DX010 (sc), vehicle: Klucel (hydroxypropylcellulose) (HPC)) is 169 % of control.
